Reference: PMC6318274, “Lattice engineering enables definition of molecular features allowing for potent small-molecule inhibition of HIV-1 entry” (Nature Communications, 2019)
Values joined by “and” are separate entries in the source; they are usually repeats but may differ in a detail not shown here. Identical values can stand only once. Like-named read-outs stand apart in the source and are kept apart here.

Test system: HIV-1 Env-pseudoviruses (208-strain panel)
Assay: microbe, parasite or virus in culture
Format: cell-based
Parameters: Total Neutralized / % Neutralized: concentration or dose not given beside the values
Description: Neutralization was measured using single-round-of-infection HIV-1 Env-pseudoviruses and TZM-bl target cells (ARP Cat No. #8129)[44],[45]. Compounds were prepared at 400 μM with 4% DMSO (dimethyl sulfoxide) in PBS (phosphate-buffered saline) and diluted 20 times as the starting concentration for serial dilution in the neutralization assays. […] After incubation at 37 °C for 2 days, infection of target cells was measured by luciferase activity. Neutralization curves were fit by nonlinear regression using a five-parameter hill slope equation[45].

COc1cnc(-c2csc(C(=O)NCCO)n2)c2[nH]cc(C(=O)C(=O)N3CCC(=C(C#N)c4ccccc4)CC3)c12 [BMS-818251]
% Neutralized: 99% and 98% and 93% and 83% and 75%
Total Neutralized: 205 and 204 and 194 and 173 and 155
IC50 (Human immunodeficiency virus 1, BAL, TZM-bl, BaL.26, clade B, read-out: IC50): 0.1 nM
IC50 (Human immunodeficiency virus 1, HXB2, TZM-bl, HXB2.DG, clade B, read-out: IC50): 0.1 nM
IC50 (Human immunodeficiency virus 1, SC422, TZM-bl, SC422.8, clade B, read-out: IC50): 0.2 nM
IC50 (Human immunodeficiency virus 1, TZM-bl): 0.3 nM
IC50 (Human immunodeficiency virus 1, TZM-bl, 45_01dG5, clade B, read-out: IC50): 0.2 nM
IC50 (Human immunodeficiency virus 1, TZM-bl, 0077.v1.c16, clade C, read-out: IC50): 0.2 nM
IC50 (Human immunodeficiency virus 1, TZM-bl, 89.6.DG, clade B, read-out: IC50): 0.1 nM
IC50 (Human immunodeficiency virus 1, TZM-bl, 96ZM651.02, clade C, read-out: IC50): 0.1 nM
IC50 (Human immunodeficiency virus 1, TZM-bl, 208-strain panel, read-out: Geometric mean IC50): 1.5 nM
IC50 (Human immunodeficiency virus 1, TZM-bl, 208-strain panel, read-out: Median IC50): 0.5 nM
IC50 (Human immunodeficiency virus 1, TZM-bl, 235-47, clade AG, read-out: IC50): 0.1 nM
IC50 (Human immunodeficiency virus 1, TZM-bl, 242-14 (Clade AG), read-out: IC50): 0.5 nM
IC50 (Human immunodeficiency virus 1, TZM-bl, 246-F3.C10.2, clade AC, read-out: IC50): 2 nM
IC50 (Human immunodeficiency virus 1, TZM-bl, 247-23 (Clade D), read-out: IC50): 0.5 nM
IC50 (Human immunodeficiency virus 1, TZM-bl, 0260.v5.c36, clade A, read-out: IC50): 1 nM
IC50 (Human immunodeficiency virus 1, TZM-bl, 263-8, clade AG, read-out: IC50): 0.1 nM
IC50 (Human immunodeficiency virus 1, TZM-bl, 269-12, clade AG, read-out: IC50): 662 nM
IC50 (Human immunodeficiency virus 1, TZM-bl, 271-11, clade AG, read-out: IC50): 1240 nM
IC50 (Human immunodeficiency virus 1, TZM-bl, 286.36, clade C, read-out: IC50): 0.1 nM
IC50 (Human immunodeficiency virus 1, TZM-bl, 288.38, clade C, read-out: IC50): 0.2 nM
IC50 (Human immunodeficiency virus 1, TZM-bl, 0330.v4.c3 (Clade A), read-out: IC50): 10 nM
IC50 (Human immunodeficiency virus 1, TZM-bl, 398-F1.F6.20, clade A, read-out: IC50): 11 nM
IC50 (Human immunodeficiency virus 1, TZM-bl, 426c (Clade C), read-out: IC50): 0.6 nM
IC50 (Human immunodeficiency virus 1, TZM-bl, 0439.v5.c1, clade A, read-out: IC50): 0.6 nM
IC50 (Human immunodeficiency virus 1, TZM-bl, 0815.v3.c3, clade ACD, read-out: IC50): 0.1 nM
IC50 (Human immunodeficiency virus 1, TZM-bl, 00836-2.5, clade C, read-out: IC50): 12200 nM
IC50 (Human immunodeficiency virus 1, TZM-bl, 0921.v2.c14, clade C, read-out: IC50): 0.1 nM
IC50 (Human immunodeficiency virus 1, TZM-bl, 928-28, clade AG, read-out: IC50): 46 nM
IC50 (Human immunodeficiency virus 1, TZM-bl, 001428-2.42, clade C, read-out: IC50): 14 nM
IC50 (Human immunodeficiency virus 1, TZM-bl, 3168.v4.c10, clade C, read-out: IC50): 0.1 nM
IC50 (Human immunodeficiency virus 1, TZM-bl, 3301.v1.c24, clade AC, read-out: IC50): 5 nM
IC50 (Human immunodeficiency virus 1, TZM-bl, 3326.v4.c3, clade CD, read-out: IC50): 0.1 nM
IC50 (Human immunodeficiency virus 1, TZM-bl, 3337.v2.c6, clade CD, read-out: IC50): 0.2 nM
IC50 (Human immunodeficiency virus 1, TZM-bl, 3365.v2.c20, clade A, read-out: IC50): 90 nM
IC50 (Human immunodeficiency virus 1, TZM-bl, 3415.v1.c1, clade A, read-out: IC50): 0.4 nM
IC50 (Human immunodeficiency virus 1, TZM-bl, 3468.v1.c12, clade AD, read-out: IC50): 0.5 nM
IC50 (Human immunodeficiency virus 1, TZM-bl, 3589.v1.c4, clade AC, read-out: IC50): 0.2 nM
IC50 (Human immunodeficiency virus 1, TZM-bl, 3637.v5.c3, clade C, read-out: IC50): 0.2 nM
IC50 (Human immunodeficiency virus 1, TZM-bl, 3718.v3.c11, clade A, read-out: IC50): 0.7 nM
IC50 (Human immunodeficiency virus 1, TZM-bl, 3817.v2.c59, clade CD, read-out: IC50): 8 nM
IC50 (Human immunodeficiency virus 1, TZM-bl, 3873.v1.c24, clade C, read-out: IC50): 0.1 nM
IC50 (Human immunodeficiency virus 1, TZM-bl, 3988.25, clade B, read-out: IC50): 0.1 nM
IC50 (Human immunodeficiency virus 1, TZM-bl, 5768.04, clade B, read-out: IC50): 0.3 nM
IC50 (Human immunodeficiency virus 1, TZM-bl, 6095.v1.c10, clade ACD, read-out: IC50): 0.1 nM
IC50 (Human immunodeficiency virus 1, TZM-bl, 6101.10, clade B, read-out: IC50): 0.1 nM
IC50 (Human immunodeficiency virus 1, TZM-bl, 6322.v4.c1, clade C, read-out: IC50): 42 nM
IC50 (Human immunodeficiency virus 1, TZM-bl, 6405.v4.c34, clade D, read-out: IC50): 257 nM
IC50 (Human immunodeficiency virus 1, TZM-bl, 6471.v1.c16, clade C, read-out: IC50): 0.1 nM
IC50 (Human immunodeficiency virus 1, TZM-bl, 6540.v4.c1, clade AC, read-out: IC50): 2 nM
IC50 (Human immunodeficiency virus 1, TZM-bl, 6545.v4.c1, clade AC, read-out: IC50): 0.5 nM
IC50 (Human immunodeficiency virus 1, TZM-bl, 6631.v3.c10, clade C, read-out: IC50): 0.1 nM
IC50 (Human immunodeficiency virus 1, TZM-bl, 6644.v2.c33, clade C, read-out: IC50): 2 nM
IC50 (Human immunodeficiency virus 1, TZM-bl, 6785.v5.c14, clade C, read-out: IC50): 6 nM
IC50 (Human immunodeficiency virus 1, TZM-bl, 6838.v1.c35, clade C, read-out: IC50): 0.4 nM
IC50 (Human immunodeficiency virus 1, TZM-bl, 7165.18 (Clade B), read-out: IC50): 11 nM
IC50 (Human immunodeficiency virus 1, TZM-bl, 0013095-2.11, clade C, read-out: IC50): 0.1 nM
IC50 (Human immunodeficiency virus 1, TZM-bl, 16055-2.3, clade C, read-out: IC50): 0.3 nM
IC50 (Human immunodeficiency virus 1, TZM-bl, 16845-2.22, clade C, read-out: IC50): 0.1 nM
IC50 (Human immunodeficiency virus 1, TZM-bl, 16936-2.21, clade C, read-out: IC50): 0.4 nM
IC50 (Human immunodeficiency virus 1, TZM-bl, 25710-2.43, clade C, read-out: IC50): 0.1 nM
IC50 (Human immunodeficiency virus 1, TZM-bl, 25711-2.4, clade C, read-out: IC50): 1 nM
IC50 (Human immunodeficiency virus 1, TZM-bl, 25925-2.22, clade C, read-out: IC50): 0.1 nM
IC50 (Human immunodeficiency virus 1, TZM-bl, 26191-2.48, clade C, read-out: IC50): 0.1 nM
IC50 (Human immunodeficiency virus 1, TZM-bl, 57128.vrc15, clade D, read-out: IC50): 0.6 nM
IC50 (Human immunodeficiency virus 1, TZM-bl, 191821.E6.1, clade D, read-out: IC50): 0.1 nM
IC50 (Human immunodeficiency virus 1, TZM-bl, 231965.c01, clade D, read-out: IC50): 0.1 nM
IC50 (Human immunodeficiency virus 1, TZM-bl, 620345.c1, clade AE, read-out: IC50): 49 nM
IC50 (Human immunodeficiency virus 1, TZM-bl, A07412M1.vrc12, clade D, read-out: IC50): 1 nM
IC50 (Human immunodeficiency virus 1, TZM-bl, AC10.29, clade B, read-out: IC50): 0.2 nM
IC50 (Human immunodeficiency virus 1, TZM-bl, ADA.DG, clade B, read-out: IC50): 0.1 nM
IC50 (Human immunodeficiency virus 1, TZM-bl, BB201.B42, clade A, read-out: IC50): 4 nM
IC50 (Human immunodeficiency virus 1, TZM-bl, BB539.2B13, clade A, read-out: IC50): 0.2 nM
IC50 (Human immunodeficiency virus 1, TZM-bl, BG1168.01, clade B, read-out: IC50): 1 nM
IC50 (Human immunodeficiency virus 1, TZM-bl, BI369.9A, clade A, read-out: IC50): 0.3 nM
IC50 (Human immunodeficiency virus 1, TZM-bl, BJOX002000.03.2, clade BC, read-out: IC50): 0.2 nM
IC50 (Human immunodeficiency virus 1, TZM-bl, BJOX009000.02.4, clade AE, read-out: IC50): 105 nM
IC50 (Human immunodeficiency virus 1, TZM-bl, BJOX010000.06.2, clade AE, read-out: IC50): 1660 nM
IC50 (Human immunodeficiency virus 1, TZM-bl, BJOX025000.01.1, clade AE, read-out: IC50): 178 nM
IC50 (Human immunodeficiency virus 1, TZM-bl, BJOX028000.10.3 (Clade AE), read-out: IC50): 236 nM
IC50 (Human immunodeficiency virus 1, TZM-bl, BL01.DG (Clade B), read-out: IC50): 2960 nM
IC50 (Human immunodeficiency virus 1, TZM-bl, BR07.DG, clade B, read-out: IC50): 641 nM
IC50 (Human immunodeficiency virus 1, TZM-bl, BR025.9, clade C, read-out: IC50): 880 nM
IC50 (Human immunodeficiency virus 1, TZM-bl, BS208.B1, clade A, read-out: IC50): 0.3 nM
IC50 (Human immunodeficiency virus 1, TZM-bl, BX08.16, clade B, read-out: IC50): 0.1 nM
IC50 (Human immunodeficiency virus 1, TZM-bl, C1080.c3, clade AE, read-out: IC50): 5380 nM
IC50 (Human immunodeficiency virus 1, TZM-bl, C2101.c1, clade AE, read-out: IC50): 1470 nM
IC50 (Human immunodeficiency virus 1, TZM-bl, C3347.c11, clade AE, read-out: IC50): 452 nM
IC50 (Human immunodeficiency virus 1, TZM-bl, C4118.09 (Clade AE), read-out: IC50): 59 nM
IC50 (Human immunodeficiency virus 1, TZM-bl, CAAN.A2, clade B, read-out: IC50): 0.1 nM
IC50 (Human immunodeficiency virus 1, TZM-bl, CAP45.G3, clade C, read-out: IC50): 4 nM
IC50 (Human immunodeficiency virus 1, TZM-bl, CAP210.E8 (Clade C), read-out: IC50): 14 nM
IC50 (Human immunodeficiency virus 1, TZM-bl, CAP244.D3, clade C, read-out: IC50): 0.1 nM
IC50 (Human immunodeficiency virus 1, TZM-bl, CE703010217.B6, clade C, read-out: IC50): 0.1 nM
IC50 (Human immunodeficiency virus 1, TZM-bl, CH038.12, clade BC, read-out: IC50): 92 nM
IC50 (Human immunodeficiency virus 1, TZM-bl, CH070.1, clade BC, read-out: IC50): 0.8 nM
IC50 (Human immunodeficiency virus 1, TZM-bl, CH117.4, clade BC, read-out: IC50): 0.4 nM
IC50 (Human immunodeficiency virus 1, TZM-bl, CH119.10 (Clade BC), read-out: IC50): 0.1 nM
IC50 (Human immunodeficiency virus 1, TZM-bl, CH181.12, clade BC, read-out: IC50): 0.1 nM
IC50 (Human immunodeficiency virus 1, TZM-bl, CM244.ec1, clade AE, read-out: IC50): 260 nM
IC50 (Human immunodeficiency virus 1, TZM-bl, CNE3, clade AE, read-out: IC50): 61 nM
IC50 (Human immunodeficiency virus 1, TZM-bl, CNE4, clade B, read-out: IC50): 4730 nM
